Here are results for four molecules from patent US8822513B2, “Compounds for treatment of cancer” (GTX, Inc., priority 2010, dated 2014).

For one series, the system named is Bovine brain tubulin. As to the kind of experiment: In vitro tubulin polymerization assay (bovine brain tubulin). The series is classed as biochemical. The following applies: 10 μM (Example 22). As to the method:
The spectrophotometer was maintained at 37° C. for tubulin polymerization.

The test system of another series is A375 melanoma xenografts. As to the kind of experiment: In vivo efficacy, A375 melanoma xenograft in nude mice (SMART compounds). Conditions: 15 mg/kg i.p. Set-up: species or system mouse.
For series [1] the following is noted: ICR mice, 4 consecutive days i.p.
For another series, the system named is PPC-1 cells. An excerpt: (§1) Cells were stained with SRB solution.
The next series relates to PC-3 cells.
Text: as §1
Cells were stained with sulphorhodamine B (SRB) solution.

The next series deals with B16-F1 melanoma cells. Description: SRB cytotoxicity assay, B16-F1. The series is classed as cell-based, mouse. Conditions: Table 6A; read-out: IC50 B16-F1.
Series [2] concerns PC-3/TxR cells.
Series [3] has as its system PC-3/TxR cells. Description: SRB cytotoxicity assay, paclitaxel-resistant PC-3/TxR. The following applies: Table 15; data in parentheses; IC50 values in PC-3 and PC-3/TxR compared. (Sulforhodamine B stains cellular protein and so reports cell mass.)
The test system of a further series is B16-F1 melanoma tumors. As to the kind of experiment: In vivo efficacy, B16-F1 melanoma in C57/BL mice. Set-up: species or system mouse. Conditions: 60 mg/kg i.p. daily, 14 days. As to the method: Female C57/BL mice, age 4-6 weeks, were purchased from Harlan Laboratories (Harlan Laboratories Inc., Indianapolis, Ind.). The animal housing met the Association for Assessment and Accreditation and Laboratory Animal Care specifications. All of the procedures were conducted in accordance with guidelines of our Institutional Animal Care and Use Committee.
Tumor volume was expressed in cubic millimeters.

Series [4] in a line: Pharmacokinetic study in Sprague-Dawley rats. The following applies: rat.

For `COc1cc(C(=O)c2csc(-c3ccc(F)cc3)n2)cc(OC)c1OC` [2k], the “inhibition of tubulin polymerization” value in the series with Bovine brain tubulin was found to be 90%. Also, the “% T/C” value in the series on A375 melanoma xenografts worked out at 29%. The “dose not causing greater than 10% loss of body weight” value in [1] is given as not above 15 mg/kg.

Regarding `COc1cc(C(=O)c2cn(S(=O)(=O)c3ccccc3)c(-c3cn(S(=O)(=O)c4ccccc4)c4ccccc34)n2)cc(OC)c1OC` [17yaa, (1-(phenylsulfonyl)-2-(1-(phenylsulfonyl)-1H-indol-3-yl)-1H-imidazol-4-yl)(3,4,5-trimethoxyphenyl)methanone], the half-inhibitory concentration (IC50) (as a rule, the concentration that inhibits the measured activity by half) in the series on PPC-1 cells stood at 0.021 ± 0.0001 µM; in the series with PC-3 cells, 0.0052 ± 0.0002 µM; with B16-F1 melanoma cells it was 0.538 µM; in the series with PC-3/TxR cells [2] it was 0.0021 ± 0.0001 µM. In addition, in the series with PC-3/TxR cells [3], the “Resistance factor PC-3/TxR vs PC-3” value is recorded as 0.4.

In the series on B16-F1 melanoma tumors, `CN(C)/N=N/c1[nH]cnc1C(N)=O` [DTIC] came in with a tumor volume reduction of 51%.

As for `COc1cc(C(=O)c2csc(Nc3ccc(F)cc3)n2)cc(OC)c1OC.Cl` [5Hc, (2-(p-Fluorophenylamino)thiazol-4-yl)(3,4,5-trimethoxyphenyl)methanone hydrochloride salt], the “increased exposure (AUC) by the oral route compared to 1h” value in series [4] is “more than 4.3 fold”.
